The results in this text go back to US4293483A, “Derivatives of A-30912A nucleus” (priority 1980, dated 1981).

Values after ≈ are worked out from the molar mass of the structure shown. Values joined by “and” are separate entries in the source; they are usually repeats but may differ in a detail not shown here. Equal values may be shown once. Read-outs that look alike come from different tables or passages of the source. Numbered stars: 1 amine (or outer) side, 2 acyl side, 3 side chain; on linkers, the order of the positions; unused ones are H or OH. Bridge positions count the residues as written; N and C are the ends. Square brackets hold non-standard residues; d marks the D form. Peptide text beside a SMILES is read from it. * marks the point of attachment. Orn(4R-OH,5R-OH) = O=C([C@H](C[C@@H](O)[C@@H](O)N[*:3])N[*:1])[*:2]; hTyr(3S-OH,4S-OH) = N[C@H](C(=O)O)[C@H](O)[C@@H](O)c1ccc(O)cc1; Pro(3S-OH,4S-Me) = C[C@H]1CN[C@H](C(=O)O)[C@H]1O; Hyp = O=C(O)[C@@H]1C[C@@H](O)CN1; Lauroyl = CCCCCCCCCCCC(=O)*; 4Abz = Nc1ccc(C(=O)O)cc1; Ava = NCCCCC(=O)O

One series concerns fungi. The series is described as follows: Antifungal activity of the cyclic nucleus. The format is cell-based. The conditions noted are these: in words; nucleus lacking the linoleoyl side chain.
In series [1] the test system is Candida albicans A-26. As to the kind of experiment: Agar plate disc diffusion test, MIC per disc. The format is cell-based. The note with it: 0.01M sodium borate, pH 7.5, 24 hours at 30° C. A general note: In agar diffusion tests the substance spreads into inoculated agar from a disc or well.
Description: (§3) *Compounds were suspended in 0.01M sodium borate solution, pH 7.5.
(§4) compounds were tested at 20 μg/disc at top level and at twofold
(§5) dilutions until end points were reached.
The subject of series [2] is Saccharomyces pastorianus X-52. As to the kind of experiment: Agar plate disc diffusion test, zone of inhibition. Type of series: cell-based. The conditions noted are these: 1 mg/ml suspension in methanol, 7 mm disc, 24-48 hours at 25-37° C.; for zone of inhibition at 1000 µg/mL: Saccharomyces pastorianus, X52, 48 h.
Description: (§6) ^(a) Compounds were tested as suspension in methanol.
(§7) were tested at a concentration of 1 mg/ml by a dipping 7mm disc into the
(§8) suspension and placing it on the agar surface. Incubation: 24-48 hours at
Series [3] relates to Candida albicans A-26. As to the kind of experiment: Agar plate disc diffusion test, zone of inhibition. The conditions noted are these: 1 mg/ml suspension in methanol, 7 mm disc, 24-48 hours at 25-37° C., no regrowth mark. Type of series: cell-based.
Description: as §6, §7, §8
For series [4] the following is noted: mouse, in vivo, 416 mg/kg, 240 min.
The test system of series [5] is Candida albicans A-26. As to the kind of experiment: Therapeutic activity against Candida albicans A-26 infection in mice. The format is in vivo. The note with it: A26, sc. Summed up:
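Male SPF albino mice (18–20 g), X-irradiated (400 total) 24 h before, were infected intravenously. Graded subcutaneous doses (40, 20, 15, 10 mg/kg; PEG–water suspension) were given at 0, 4 and 24 h post infection, 6 mice per dose. ED50 is the dose curing 50%; otherwise the lowest dose with significant survival-time increase over controls.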

The subject of a further series is Candida albicans SBH 31. The series is described as follows: Agar dilution assay. The format is cell-based. The procedure: (§1) Tables 4 and 5 give the results of the testing in vitro of the compounds of Examples 61-81 by agar-plate disc-diffusion methods. In Table 4 activity is measured by the size (diameter in mm.) of the observed zone of inhibition of the microorganism produced by the test compound. In Table 5, activity is measured by the minimal inhibitory concentration (MIC) of the substance (μg/disc) required to inhibit growth of the test organism. Table 6 gives the results of the testing in vitro of the N-(n-dodecanoyl)-p-aminobenzoyl derivative of A30912A nucleus (Formula III, R^1 is N-(dodecanoyl)-p-aminobenzoyl) against five strains of Candida albicans by the agar dilution method. In Table 6 activity is measured by the minimal inhibitory concentration (MIC) of the substance (μg/ml) required to inhibit the test organism.
(§2) In vitro activity of the N-(n-dodecanoyl)-p-aminobenzoyl (Example 64) and the N-(n-dodecanoyl)-5-amino-n-pentanoyl (Example 62) derivatives of A-30912A nucleus against 5 strains of Candida albicans by the agar dilution assay.

The test system of another series is Candida albicans SBH 28. The series is described as follows: Agar dilution assay. Type of series: cell-based. The procedure: as §1, §2
(Agar dilution tests growth on a series of plates holding different concentrations.)

In another series the test system is Candida albicans SBH 29. The series is described as follows: Agar dilution assay. The format is cell-based. The procedure: as §1, §2
For another series, the system named is Candida albicans SBH 16. As to the kind of experiment: Agar dilution assay. The format is cell-based. The procedure: as §1, §2
The test system of a further series is Candida albicans A26. As to the kind of experiment: Agar dilution assay. Type of series: cell-based. The procedure: as §1, §2
A further series relates to Neurospora Crassa 846. As to the kind of experiment: Agar plate disc diffusion test, zone of inhibition. The format is cell-based. The conditions noted are these: 1 mg/ml, 7 mm disc, * measurable zone of inhibition with regrowth of organism around disc; for zone of inhibition at 1000 µg/mL: Neurospora crassa.
The subject of series [6] is Trichophyton mentagrophytes. As to the kind of experiment: Agar plate disc diffusion test, zone of inhibition. Type of series: cell-based.
Description: as §6, §7, §8
The subject of series [7] is Trychophyton mentagrophytes #6. As to the kind of experiment: Agar plate disc diffusion test, MIC per disc. The format is cell-based. The conditions noted are these: 0.01M sodium borate, pH 7.5, 24 hours at 30° C.
Description: as §3, §4, §5
A short description of series [8]: Toxicity in dog on intravenous administration. Type of series: in vivo. The note with it: 100 mg/kg per day for five days.
The nature of series [9]: Blood levels after oral administration in mice. The note with it: mouse, in vivo, po, 416 mg/kg.

Description for Neurospora Crassa 846: as §6, §7, §8

For the compound `C[C@@H](O)[C@@H]1NC(=O)[C@H]([C@H](O)[C@@H](O)c2ccc(O)cc2)NC(=O)[C@@H]2C[C@@H](O)CN2C(=O)[C@H]([C@@H](C)O)NC(=O)[C@@H](N)C[C@@H](O)[C@@H](O)NC(=O)[C@@H]2[C@@H](O)[C@@H](C)CN2C1=O` [A-30912A nucleus] (H-[Orn(4R-OH,5R-OH)]T[Hyp][hTyr(3S-OH,4S-OH)]T[Pro(3S-OH,4S-Me)]; lactam 1-C), the antifungal activity result in the series with fungi is “substantially devoid of antifungal activity”.

As a reminder, the ED50 is the midpoint of the dose-response relation. In the case of `CCCCCCCCCCCC(=O)NCCCCC(=O)N[C@H]1C[C@@H](O)[C@@H](O)NC(=O)[C@@H]2[C@@H](O)[C@@H](C)CN2C(=O)[C@H]([C@@H](C)O)NC(=O)[C@H]([C@H](O)[C@@H](O)c2ccc(O)cc2)NC(=O)[C@@H]2C[C@@H](O)CN2C(=O)[C@H]([C@@H](C)O)NC1=O` [Example 62, N-(n-dodecanoyl)-5-amino-n-pentanoyl derivative of A-30912A nucleus] ({Lauroyl-Ava}-[Orn(4R-OH,5R-OH)]T[Hyp][hTyr(3S-OH,4S-OH)]T[Pro(3S-OH,4S-Me)]; lactam 1-C), the MIC against Candida albicans A-26 [1] was 1.25 μg/disc; in the series on Candida albicans SBH 31 (SBH31, agar dilution, strain SBH 31, read-out: MIC) it was 2.5 µg/mL (≈ 2.32 µM); in the series on Candida albicans SBH 28 (SBH28, agar dilution, strain SBH 28, read-out: MIC) it was 2.5 µg/mL (≈ 2.32 µM); with Candida albicans SBH 29 (SBH29, agar dilution, strain SBH 29, read-out: MIC), 2.5 µg/mL (≈ 2.32 µM); in the series with Candida albicans SBH 16 (SBH16, agar dilution, strain SBH 16, read-out: MIC), 2.5 µg/mL (≈ 2.32 µM); with Candida albicans A26 (agar dilution, strain A26, read-out: MIC), 1.25 µg/mL (≈ 1.16 µM). In series [7], this compound returned an MIC of 0.078 μg/disc. In addition, the zone of inhibition at 1000 µg/mL in [2] (Saccharomyces pastorianus X-52, read-out: Size of Zone of Inhibition) was 15 mm; with Neurospora Crassa 846 (CRASSA846, Neurospora Crassa 846, read-out: Size of Zone of Inhibition (*)), 27 mm; in [6] (1 mg/ml, 7 mm disc, * measurable zone of inhibition with regrowth of organism around disc, read-out: Size of Zone of Inhibition (*)), 60 mm. Moreover, in the series on Candida albicans A-26 [3], the “Size of Zone of Inhibition” value is listed as 25 mm. Further, in [4], the “Blood Levels” value was found to be 0 µg/mL. For the same compound, the ED50 in the series with Candida albicans A-26 [5] (subcutaneous at 0, 4 and 24 hours post infection, dose to cure 50% of test animals, by increase in survival time, read-out: ED50) was determined as 22 mg/kg. Also, in the series with Candida albicans A-26 [5] (subcutaneous at 0, 4 and 24 hours post infection, lowest dose with significant anti-fungal effect, read-out: Lowest Active Dose), the minimal effective dose amounted to 20 mg/kg.

Regarding `CCCCCCCCCCCC(=O)Nc1ccc(C(=O)N[C@H]2C[C@@H](O)[C@@H](O)NC(=O)[C@@H]3[C@@H](O)[C@@H](C)CN3C(=O)[C@H]([C@@H](C)O)NC(=O)[C@H]([C@H](O)[C@@H](O)c3ccc(O)cc3)NC(=O)[C@@H]3C[C@@H](O)CN3C(=O)[C@H]([C@@H](C)O)NC2=O)cc1` [Example 64, N-(n-dodecanoyl)-p-aminobenzoyl derivative of A-30912A nucleus] ({Lauroyl-4Abz}-[Orn(4R-OH,5R-OH)]T[Hyp][hTyr(3S-OH,4S-OH)]T[Pro(3S-OH,4S-Me)]; lactam 1-C), the MIC is 0.625 μg/disc and 1.25 μg/disc in the series on Candida albicans A-26 [1]; 0.625 µg/mL (≈ 0.569 µM) in the series with Candida albicans SBH 31 (SBH31); 0.625 µg/mL (≈ 0.569 µM) with Candida albicans SBH 28 (SBH28); 0.625 µg/mL (≈ 0.569 µM) in the series on Candida albicans SBH 29 (SBH29); 0.625 µg/mL (≈ 0.569 µM) in the series with Candida albicans SBH 16 (SBH16); 0.312 µg/mL (≈ 0.284 µM) against Candida albicans A26 (A26). Moreover, the “Size of Zone of Inhibition” value in [2] (Saccharomyces pastorianus X-52) was 17 mm; in the series with Candida albicans A-26 [3], 23 mm and 19 mm. In addition, the zone of inhibition at 1000 µg/mL in series [2] (read-out: Size of Zone of Inhibition, Saccharomyces pastorianus X-52) was 21 mm; in the series with Neurospora Crassa 846 (CRASSA846, read-out: Size of Zone of Inhibition (*), Neurospora Crassa 846), 33 mm; in series [6] (read-out: Size of Zone of Inhibition (*), Trichophyton mentagrophytes, 1 mg/ml, 7 mm disc, * measurable zone of inhibition with regrowth of organism around disc) it was 55 mm. Further, it took a dose of 15 mg/kg to reach the 50% effect level in the series on Candida albicans A-26 [5] (ED50). Moreover, in the series with Candida albicans A-26 [5] (read-out: Lowest Active Dose, subcutaneous at 0, 4 and 24 hours post infection, lowest dose with significant anti-fungal effect), the minimal effective dose came out at 10 mg/kg. The “Size of Zone of Inhibition (*)” value with Neurospora Crassa 846 (Neurospora Crassa 846) is 35 mm; in series [6] (1 mg/ml, 7 mm disc, * measurable zone of inhibition with regrowth of organism around disc) it was 56 mm. Besides, the SGPT levels result in series [8] is “increased SGPT levels were observed”. The “outward signs of toxicity” value in [8] was “no outward signs of toxicity”. This compound also showed a concentration at 4 h in series [9] of 830 ng/mL.
